The molecules below were run against Human Factor D (Homo sapiens (Human), UniProt P00746) (assay: Human Factor D Assay). Details: not given.
Type: biochemical
Method in brief: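 First, compound at various concentrations is mixed with 80 nM (final) human serum Factor D in 50 mM Tris, 1M NaCl, pH 7.5 for 5 min at room temperature.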

Human Factor D, sequence (P00746 26-253): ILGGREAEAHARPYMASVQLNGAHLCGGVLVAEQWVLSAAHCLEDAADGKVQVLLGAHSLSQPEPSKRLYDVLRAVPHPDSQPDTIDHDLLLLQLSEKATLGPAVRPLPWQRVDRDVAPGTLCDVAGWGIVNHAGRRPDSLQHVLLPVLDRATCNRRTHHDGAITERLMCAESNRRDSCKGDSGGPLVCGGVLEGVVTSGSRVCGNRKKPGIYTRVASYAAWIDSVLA

In the case of `Cc1cccc(NC(=O)[C@@H]2[C@H]3CC[C@H](C3)N2C(=O)Cn2cc(C(N)=O)c3cc(-c4n[nH]c5ccsc45)ccc32)n1` [Compound 704, 1-(2-((1R,3S,4S)-3-((6-Methylpyridin-2-yl)carbamoyl)-2-azabicyclo[2.2.1]heptan-2-yl)-2-oxoethyl)-5-(1H-thieno[3,2-c]pyrazol-3-yl)-1H-indole-3-carboxamide], the IC50 is reported as > 10 µM.

Same assay, conditions: Human Factor D, Table 3; read-out: IC50

`CC(=O)c1nn(CC(=O)N2C[C@H](F)C[C@H]2C(=O)Nc2cccc(Br)n2)c2ccc(-c3cnn4c3CCC4)cc12` [Compound 693, (2S,4R)-1-(2-(3-Acetyl-5-(5,6-dihydro-4H-pyrrolo[1,2-b]pyrazol-3-yl)-1H-indazol-1-yl)acetyl)-N-(6-bromopyridin-2-yl)-4-fluoropyrrolidine-2-carboxamide] and `CC(=O)c1nn(CC(=O)N2C[C@H](F)C[C@H]2C(=O)Nc2cccc(Br)n2)c2ccc(-c3cnn(C4CC4)c3)cc12` [Compound 706, (2S,4R)-1-(2-(3-Acetyl-5-(1-cyclopropyl-1H-pyrazol-4-yl)-1H-indazol-1-yl)acetyl)-N-(6-bromopyridin-2-yl)-4-fluoropyrrolidine-2-carboxamide] cannot be ordered by IC50: < 1 µM for the first, < 1 µM for the second.

`Cc1cccc(NC(=O)[C@@H]2[C@H]3CC[C@H](C3)N2C(=O)Cn2cc(C(N)=O)c3cc(-c4cnc5ncccn45)ccc32)n1` [Compound 695, 5-(Imidazo[1,2-a]pyrimidin-3-yl)-1-(2-((1R,3S,4S)-3-(6-methylpyridin-2-ylcarbamoyl)-2-azabicyclo[2.2.1]heptan-2-yl)-2-oxoethyl)-1H-indole-3-carboxamide] and `Cc1cccc(NC(=O)[C@@H]2[C@H]3CC[C@H](C3)N2C(=O)Cn2cc(C(N)=O)c3cc(-c4cnc5n4CCCC5)ccc32)n1` [Compound 698, 1-(2-((1R,3S,4S)-3-(6-Methylpyridin-2-ylcarbamoyl)-2-azabicyclo[2.2.1]heptan-2-yl)-2-oxoethyl)-5-(5,6,7,8-tetrahydroimidazo[1,2-a]pyridin-3-yl)-1H-indole-3-carboxamide] cannot be ordered by IC50: > 10 µM for the first, > 10 µM for the second.

`CC(=O)c1nn(CC(=O)N2C[C@H](F)C[C@H]2C(=O)Nc2cccc(Br)n2)c2ccc(-c3cnn(-c4ncccn4)c3)cc12` [Compound 696, (2S,4R)-1-(2-(3-Acetyl-5-(1-(pyrimidin-2-yl)-1H-pyrazol-4-yl)-1H-indazol-1-yl)acetyl)-N-(6-bromopyridin-2-yl)-4-fluoropyrrolidine-2-carboxamide] and `CC(=O)c1nn(CC(=O)N2C[C@H](F)C[C@H]2C(=O)Nc2cccc(Br)n2)c2ccc(-c3cnn(-c4ncc(F)cn4)c3)cc12` [Compound 699, (2S,4R)-1-(2-(3-Acetyl-5-(1-(5-fluoropyrimidin-2-yl)-1H-pyrazol-4-yl)-1H-indazol-1-yl)acetyl)-N-(6-bromopyridin-2-yl)-4-fluoropyrrolidine-2-carboxamide] cannot be ordered by IC50: < 1 µM for the first, < 1 µM for the second.

Going from `CC(=O)c1cn(CCN2C[C@H](F)C[C@H]2C(=O)Nc2cccc(OC(F)(F)F)c2F)c2ccc(-c3cnc4cc(C)nn4c3)cc12` [Compound 701, (2S,4R)-1-(2-(3-Acetyl-5-(2-methylpyrazolo[1,5-a]pyrimidin-6-yl)-1H-indol-1-yl)ethyl)-4-fluoro-N-(2-fluoro-3-(trifluoromethoxy)phenyl)pyrrolidine-2-carboxamide] to `CC(=O)c1nn(CC(=O)N2C[C@H](F)C[C@H]2C(=O)Nc2cccc(Br)n2)c2ccc(-c3cnc(=O)n(C)c3)cc12` [Compound 702, (2S,4R)-1-(2-(3-Acetyl-5-(1-methyl-2-oxo-1,2-dihydropyrimidin-5-yl)-1H-indazol-1-yl)acetyl)-N-(6-bromopyridin-2-yl)-4-fluoropyrrolidine-2-carboxamide], the IC50 falls from > 10 µM to < 1 µM.

With `CC(=O)c1nn(CC(=O)N2CC[C@H]2C(=O)Nc2cccc(C)n2)c2ccc(-c3cnc4n3CCCC4)cc12` [Compound 705, (S)-1-(2-(3-Acetyl-5-(5,6,7,8-tetrahydroimidazo[1,2-a]pyridin-3-yl)-1H-indazol-1-yl)acetyl)-N-(6-methylpyridin-2-yl)azetidine-2-carboxamide] the IC50 was > 10 µM.

Source: patent publication US10287301B2 (Achillion Pharmaceuticals, Inc., priority 2015, dated 2019)
